Laboratory results published in patent publication US6127420A, “L-N^5 -(1-imino-3-alkenyl) ornithine and related compounds and use thereof” (priority 1998, dated 2000).
Read-outs that look alike come from different tables or passages of the source.

What was measured:
eNOS [1] = target: T1, eNOS (Bos taurus, UniProt P29473); assay: biochemical
Description: (§1) For determination of Ki of a compound, activity of NOS is determined by monitoring the conversion of L-[^14 C]arginine to L-[^14 C]citrulline. […] Reaction mixtures for iNOS are similar, but CaCl2 and calmodulin are omitted. Reaction is initiated by the addition of the enzyme, and the solutions are maintained at 25° C. for 4 min. Reaction mixtures are quenched by the addition of 200 μl of stop buffer containing 100 mM Na^+ Hepes buffer, pH 5.5, and 5 mM ethylene glycol bis (β-aminoethylether)-N,N,N',N"-tetraacetic acid (EGTA). The resulting samples are heated in a boiling water bath for 1 minute and chilled and centrifuged. A portion (225 μl) of the supernatant is applied to small Dowex 50 columns (Na^+ form, 1 ml resin), and the product L-[^14 C]citrulline is eluted with 2 ml of water and quantified by liquid scintillation counting.

iNOS [2] = target: T2, iNOS (Mus musculus, UniProt P29477); assay: biochemical
Description: as §1

nNOS [3] = target: T3, nNOS (Rattus norvegicus, UniProt P29476); assay: Time-dependent inactivation of nNOS (residual activity, oxyhemoglobin oxidation); format: biochemical; design: made in house; host or cells: stably transfected kidney 293 cells; details: 25° C.; for inactivation of nNOS relative to 2.0 μM L-NMA (FIG. 2): 0.5 μM L-VNIO vs 2.0 μM L-NMA; for inactivation of nNOS (in words, FIG. 2): under the conditions examined
Description: Nitric oxide-mediated oxidation of oxyhemoglobin was monitored at 401 nm (ε=0.038 μM^-1); the reference cuvette contained a similar mixture without enzyme. Rates were measured and used to calculate the residual activity. The results are shown in FIG. 1 where for ln A/Ao in the legend for the vertical axis, A is the residual activity of NOS at the time indicated and Ao is the activity of NOS at time zero (i.e., initial activity).
Determinations were carried out as described in Example XI. The results are shown in FIG. 2 where in (A/Ao) means the same as in Example XI.
Testing was carried out to compare inactivation by L-VNIO of the nNOS, eNOS and iNOS isoforms. Determinations were carried out as set forth in Example XI except that the reaction mixtures for iNOS omitted CaCl2 and calmodulin.

eNOS [4] = target: T1, eNOS; assay: Time-dependent inactivation of eNOS (residual activity, oxyhemoglobin oxidation); format: biochemical, bovine; details: 25° C.
iNOS [5] = target: T2, iNOS; assay: Time-dependent inactivation of iNOS (residual activity, oxyhemoglobin oxidation; CaCl2 and calmodulin omitted); format: biochemical; details: up to 100 μM L-VNIO, 25° C.
[6] = system: female Sprague-Dawley CFY rats; assay: Stroke volume after carotid artery ligation in rats; format: in vivo, rat; details: 25 mg/kg i.v. bolus 30 minutes after occlusion; histology 24 hours after artery occlusion
Description: Both carotid arteries are ligated in two groups of female Sprague-Dawley CFY rats. After 10 minutes, ligations are released and flow is again allowed.
In the case of one group, L-VNIO (25 mg/kg) is administered by bolus injection through a venous catheter 30 minutes after occlusion of the arteries. In the case of the other group, no therapeutic agent is administered.

[7] = Migraine headache treatment of a patient with L-VNIO tablets; format: in vivo, human
Description: A person with a history of migraine headaches is provided with tablets containing 500 mg of L-VNIO. They are instructed to take one tablet at the first sign of migraine headache development and to take a second table 60 minutes later if the headache continues to develop. When a right-sided migraine headache begins, they take one tablet as instructed, and headache pain begins to decrease within 15 minutes and is absent within 45 minutes. […] The women therefore takes a second table as instructed and headache pain is absent within 30 minutes of taking the second tablet.

nNOS [8] = target: T3, nNOS; details: for nNOS Ki/Km: Ki divided by Km for L-arginine; for selectivity for nNOS (in words): vs eNOS (and iNOS for L-VNIO), on a Ki/Km basis
Description: as §1

eNOS [9] = target: T1, eNOS; details: for eNOS Ki/Km: Ki divided by Km for L-arginine
Description: as §1

iNOS [10] = target: T2, iNOS; details: for iNOS Ki/Km: Ki divided by Km for L-arginine
Description: as §1

nNOS [11] = target: T3, nNOS; assay: biochemical
Description: as §1

[12] = first migraine, one 500 mg tablet

T3 sequence (P29476 whole entry): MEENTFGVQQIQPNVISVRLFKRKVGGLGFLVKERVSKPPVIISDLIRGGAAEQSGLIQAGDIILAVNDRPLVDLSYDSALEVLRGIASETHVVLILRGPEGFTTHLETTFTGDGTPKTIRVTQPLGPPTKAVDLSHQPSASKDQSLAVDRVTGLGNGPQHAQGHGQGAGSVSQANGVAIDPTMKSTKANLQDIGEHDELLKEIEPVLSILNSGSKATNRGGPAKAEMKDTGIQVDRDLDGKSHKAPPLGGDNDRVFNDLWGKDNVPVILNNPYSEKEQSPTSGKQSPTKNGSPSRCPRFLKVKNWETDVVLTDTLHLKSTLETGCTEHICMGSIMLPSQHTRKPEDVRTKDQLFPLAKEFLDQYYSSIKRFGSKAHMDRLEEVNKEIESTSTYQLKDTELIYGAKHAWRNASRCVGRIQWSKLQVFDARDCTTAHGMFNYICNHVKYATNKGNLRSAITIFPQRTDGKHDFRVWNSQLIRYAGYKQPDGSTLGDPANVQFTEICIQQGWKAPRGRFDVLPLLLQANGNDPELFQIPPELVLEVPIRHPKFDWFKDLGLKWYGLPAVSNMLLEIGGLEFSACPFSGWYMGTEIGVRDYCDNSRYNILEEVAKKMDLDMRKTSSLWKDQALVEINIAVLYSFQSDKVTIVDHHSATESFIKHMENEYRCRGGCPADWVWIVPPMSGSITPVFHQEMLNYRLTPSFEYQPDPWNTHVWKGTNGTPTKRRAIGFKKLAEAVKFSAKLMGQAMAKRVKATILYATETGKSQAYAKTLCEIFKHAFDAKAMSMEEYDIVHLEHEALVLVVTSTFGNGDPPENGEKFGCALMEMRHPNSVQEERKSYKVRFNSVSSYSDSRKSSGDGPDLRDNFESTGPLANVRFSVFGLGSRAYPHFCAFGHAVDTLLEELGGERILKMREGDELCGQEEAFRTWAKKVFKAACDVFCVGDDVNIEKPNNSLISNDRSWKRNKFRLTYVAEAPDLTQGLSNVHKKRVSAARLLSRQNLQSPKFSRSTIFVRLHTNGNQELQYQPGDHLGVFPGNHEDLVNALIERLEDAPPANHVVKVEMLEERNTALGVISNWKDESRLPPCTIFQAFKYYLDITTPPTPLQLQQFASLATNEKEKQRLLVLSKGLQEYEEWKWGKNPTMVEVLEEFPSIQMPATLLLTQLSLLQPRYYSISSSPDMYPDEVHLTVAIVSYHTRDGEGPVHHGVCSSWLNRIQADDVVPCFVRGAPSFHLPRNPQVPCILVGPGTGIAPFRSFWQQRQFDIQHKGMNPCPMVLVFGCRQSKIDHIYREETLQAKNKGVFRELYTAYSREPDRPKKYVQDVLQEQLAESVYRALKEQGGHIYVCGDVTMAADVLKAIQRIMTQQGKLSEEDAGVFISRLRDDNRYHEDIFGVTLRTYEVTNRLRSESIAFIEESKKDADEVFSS
T1 sequence (P29473 2-1205): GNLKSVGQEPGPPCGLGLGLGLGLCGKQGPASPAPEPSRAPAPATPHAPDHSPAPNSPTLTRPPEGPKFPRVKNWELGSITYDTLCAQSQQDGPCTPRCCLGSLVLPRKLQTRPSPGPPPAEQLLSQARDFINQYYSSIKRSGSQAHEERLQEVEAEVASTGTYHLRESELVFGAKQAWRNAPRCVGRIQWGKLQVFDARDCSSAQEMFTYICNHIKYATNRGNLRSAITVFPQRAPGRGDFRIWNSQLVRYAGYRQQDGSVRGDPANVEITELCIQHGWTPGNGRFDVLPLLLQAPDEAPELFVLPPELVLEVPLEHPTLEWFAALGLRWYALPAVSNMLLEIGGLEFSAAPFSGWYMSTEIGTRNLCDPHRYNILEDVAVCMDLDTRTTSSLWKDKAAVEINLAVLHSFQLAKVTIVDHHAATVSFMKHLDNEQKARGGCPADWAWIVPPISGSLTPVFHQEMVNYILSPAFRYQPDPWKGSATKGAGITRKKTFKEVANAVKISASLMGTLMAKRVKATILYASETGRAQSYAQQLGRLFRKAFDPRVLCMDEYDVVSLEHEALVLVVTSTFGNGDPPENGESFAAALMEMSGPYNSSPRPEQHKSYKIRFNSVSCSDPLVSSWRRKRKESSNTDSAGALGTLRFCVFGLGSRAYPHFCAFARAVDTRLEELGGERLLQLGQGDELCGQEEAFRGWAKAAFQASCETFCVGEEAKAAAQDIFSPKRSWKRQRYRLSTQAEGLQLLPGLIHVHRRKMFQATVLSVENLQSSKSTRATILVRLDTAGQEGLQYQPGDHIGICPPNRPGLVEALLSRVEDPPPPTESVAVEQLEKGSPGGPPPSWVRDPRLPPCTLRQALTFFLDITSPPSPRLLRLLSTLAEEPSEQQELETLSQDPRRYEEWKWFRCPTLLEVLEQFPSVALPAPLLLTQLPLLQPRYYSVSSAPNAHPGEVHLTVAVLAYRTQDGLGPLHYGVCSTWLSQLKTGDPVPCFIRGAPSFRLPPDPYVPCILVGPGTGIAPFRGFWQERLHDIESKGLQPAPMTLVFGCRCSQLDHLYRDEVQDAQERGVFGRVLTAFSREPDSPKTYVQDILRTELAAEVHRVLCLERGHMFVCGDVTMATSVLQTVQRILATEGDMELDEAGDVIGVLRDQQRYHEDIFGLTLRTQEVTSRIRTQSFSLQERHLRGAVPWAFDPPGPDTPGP
T2 sequence (P29477 whole entry): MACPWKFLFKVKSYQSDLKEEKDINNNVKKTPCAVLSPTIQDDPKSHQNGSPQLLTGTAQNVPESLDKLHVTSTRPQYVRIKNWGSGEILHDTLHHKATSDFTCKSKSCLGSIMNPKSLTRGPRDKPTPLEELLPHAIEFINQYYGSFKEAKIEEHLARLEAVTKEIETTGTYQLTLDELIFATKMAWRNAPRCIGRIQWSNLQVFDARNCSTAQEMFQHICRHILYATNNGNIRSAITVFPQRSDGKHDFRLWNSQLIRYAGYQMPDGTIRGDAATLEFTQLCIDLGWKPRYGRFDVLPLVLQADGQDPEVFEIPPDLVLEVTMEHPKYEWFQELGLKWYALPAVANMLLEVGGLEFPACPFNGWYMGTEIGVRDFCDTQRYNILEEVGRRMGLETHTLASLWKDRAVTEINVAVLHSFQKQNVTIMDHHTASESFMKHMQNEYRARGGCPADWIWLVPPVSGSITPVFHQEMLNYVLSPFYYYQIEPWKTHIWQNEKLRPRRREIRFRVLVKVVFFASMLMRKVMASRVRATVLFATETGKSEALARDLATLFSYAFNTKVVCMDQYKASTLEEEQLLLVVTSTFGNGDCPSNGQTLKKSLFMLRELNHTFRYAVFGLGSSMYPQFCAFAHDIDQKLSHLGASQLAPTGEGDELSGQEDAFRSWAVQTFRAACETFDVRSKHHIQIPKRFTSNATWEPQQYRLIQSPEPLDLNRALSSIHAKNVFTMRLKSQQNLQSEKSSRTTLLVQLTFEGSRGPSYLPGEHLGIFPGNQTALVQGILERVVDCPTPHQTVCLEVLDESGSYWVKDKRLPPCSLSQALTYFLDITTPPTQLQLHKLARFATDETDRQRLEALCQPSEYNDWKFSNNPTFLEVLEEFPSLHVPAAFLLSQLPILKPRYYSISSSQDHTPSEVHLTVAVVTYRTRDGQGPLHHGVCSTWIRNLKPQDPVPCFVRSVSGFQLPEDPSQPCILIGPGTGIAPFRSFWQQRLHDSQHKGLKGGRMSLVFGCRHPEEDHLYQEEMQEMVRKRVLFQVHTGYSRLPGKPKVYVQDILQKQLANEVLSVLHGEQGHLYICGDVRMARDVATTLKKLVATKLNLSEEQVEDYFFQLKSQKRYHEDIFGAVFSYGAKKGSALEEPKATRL

SMILES	Ki (eNOS [1]) [µM]	Ki (iNOS [2]) [µM]	inactivation of nNOS relative to 2.0 μM L-NMA (FIG. 2) (nNOS [3])	nNOS Ki/Km (nNOS [8])	selectivity for nNOS (in words) (nNOS [8])	eNOS Ki/Km (eNOS [9])	iNOS Ki/Km (iNOS [10])	inactivation of nNOS (in words, FIG. 2) (nNOS [3])	further results
CC(=N)NCCC[C@H](N)C(=O)O [L-NIO]	3.9	3.9							
CNC(=N)NCCC[C@H](N)C(=O)O [L-NMA, N^ω -methyl-L-arginine, reference compound]			comparable						
C=CCC(=N)NCCC[C@H](N)C(=O)O [L-VNIO, N^5-(1-imino-3-butenyl)-L-ornithine]	12		comparable with that seen with 2.0 μM L-NMA	0.07	selective inhibitor of nNOS	3.33	4.80		inactivation of eNOS (FIG. 3) (eNOS [4]; 10 μM L-VNIO): relatively weak inactivator of eNOS; rate of inactivation of eNOS compared with nNOS (FIG. 3) (eNOS [4]; 20-fold higher concentration of L-VNIO: 10 μM eNOS vs 0.5 μM nNOS): does not match that seen with nNOS; inactivation of iNOS (FIG. 3) (iNOS [5]): does not inactivate iNOS; stroke volume compared to group receiving no treatment [6]: significant reduction in stroke volume; time until headache pain begins to decrease [7, 12]: ≤ 15 min; time until headache pain is absent [7, 12]: ≤ 45 min; pain relief by the first tablet, following day ([7]; following day, first 500 mg tablet): pain is not fully alleviated by the first tablet; time until headache pain is absent after the second tablet ([7]; following day, second 500 mg tablet 60 minutes after first): ≤ 30 min; inhibition of nNOS (in words) (nNOS [8]; conclusion from Table I): potent inhibitor of nNOS; Ki (nNOS [8]; read-out: nNOS Ki, rat nNOS, 25° C., pH 7.4, initial rate conditions, duplicates agreed within ±5%): 0.1 µM; inhibition of eNOS (in words) (eNOS [9]; conclusion from Table I): poor inhibitor of eNOS; inhibition of iNOS (in words) (iNOS [10]; conclusion from Table I): poor inhibitor of eNOS and INOS; Ki (iNOS [10]; read-out: iNOS Ki, mouse iNOS, 25° C., pH 7.4, initial rate conditions, duplicates agreed within ±5%): 60 µM; inactivation of nNOS relative to 10 μM L-NIO (FIG. 2) (nNOS [3]; 0.5 μM L-VNIO vs 10 μM L-NIO): greater than that seen with 10 μM L-NIO; inactivation of nNOS (FIG. 3) (nNOS [3]; 0.5 μM L-VNIO): strong inactivator of nNOS; inactivation of nNOS (FIG. 1) (nNOS [3]; L-VNIO 0.1-0.8 μM, D-VNIO 100 μM): caused a first-order inactivation of nNOS
CCCC(=N)NCCC[C@H](N)C(=O)O [ethyl-L-NIO, reference compound]	18	12		3.79	do not show biologically significant selectivity for nNOS over eNOS	5.00	0.96	does not inactivate nNOS	selectivity for iNOS over nNOS and eNOS (iNOS [10]; on a Ki/Km basis): 3 to 5 fold; Ki (nNOS [11]): 5.3 µM
CCC(=N)NCCC[C@H](N)C(=O)O [methyl-L-NIO]	10	9.5						much weaker inactivator of nNOS	
